Source: publication PMC6934184, “Selective DNA-PKcs inhibition extends the therapeutic index of localized radiotherapy and chemotherapy” (The Journal of Clinical Investigation, 2019)

Target: T1, BMPR1A (ALK3) (Homo sapiens, UniProt P36894)
T1 construct: purchased Thermo Fisher Scientific (Life Technologies) SelectScreen
Experiment: SelectScreen LanthaScreen
Type: binding
Settings: read-out: % displacement
Outline: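 NU5455 was profiled across the SelectScreen Broad panel of kinase activity and binding assays. Z'LYTE reactions such as CSF1R ran at apparent Km ATP, while the Adapta CAMK1 assay used ATP listed as 10. Values are given as percent.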

T1 sequence (P36894 24-532): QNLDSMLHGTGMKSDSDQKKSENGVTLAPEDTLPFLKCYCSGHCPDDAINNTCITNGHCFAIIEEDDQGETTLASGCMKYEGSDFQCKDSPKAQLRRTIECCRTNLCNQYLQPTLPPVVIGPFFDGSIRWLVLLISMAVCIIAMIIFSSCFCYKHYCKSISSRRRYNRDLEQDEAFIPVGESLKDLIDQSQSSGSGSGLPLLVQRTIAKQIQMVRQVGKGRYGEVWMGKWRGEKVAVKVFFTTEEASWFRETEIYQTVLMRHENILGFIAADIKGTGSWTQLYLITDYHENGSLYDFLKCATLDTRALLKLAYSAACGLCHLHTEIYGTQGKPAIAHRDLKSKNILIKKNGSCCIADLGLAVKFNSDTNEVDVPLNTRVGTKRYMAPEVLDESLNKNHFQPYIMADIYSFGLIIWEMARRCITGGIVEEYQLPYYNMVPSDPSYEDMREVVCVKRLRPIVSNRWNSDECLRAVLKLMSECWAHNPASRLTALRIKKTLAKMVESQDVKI

## CN(C(=O)CN1CCOCC1)c1ccc2sc3c(-c4cccc5c(=O)cc(N6CC7CCC(C6)O7)oc45)cccc3c2c1 [NU5455]
  inhibition at 1 µM: -4.4%
